In patent US9670194B2 (Calitor Sciences, LLC, priority 2013, dated 2017):
pIC50: −log10 of the molar value.

Assays:
[1] = Compound stability in human liver microsomes; type: in vitro ADME; settings: for half-life at 5 μM: human liver microsomes 0.5 mg protein/mL, compound 5 μM, NADPH 1.0 mM, 37° C.; for CLint scaled at 5 μM: human liver microsomes, in vivo CLint extrapolated
[2] = Compound stability in rat liver microsomes; type: in vitro ADME; settings: pH 7.4; for half-life at 5 μM: rat liver microsomes 0.5 mg protein/mL, compound 5 μM, NADPH 1.0 mM, 37° C.; for CLint scaled at 5 μM: rat liver microsomes, in vivo CLint extrapolated
[3] = Pharmacokinetics after intravenous and oral administration in rats; type: in vivo, rat; settings: for clearance (CL) / AUC(0-t) / half-life / Vd: iv dosing, dose 1 mg/kg; for bioavailability / AUC(0-t) / half-life / Vd: rat, plasma; for bioavailability: iv dose 1 mg/kg, oral dose generally 5 or 10 mg/kg; for Vd: read-out: Vss
PI3K (p110δ/p85α) (h) = PI3K (p110δ/p85α) (h) (Homo sapiens (Human), UniProt O00329); assay: PI3K (p110δ/p85α) (h) non-radioactive HTRF kinase assay; type: biochemical
PI3K (p110δ/p85α) (h), sequence (O00329 whole entry): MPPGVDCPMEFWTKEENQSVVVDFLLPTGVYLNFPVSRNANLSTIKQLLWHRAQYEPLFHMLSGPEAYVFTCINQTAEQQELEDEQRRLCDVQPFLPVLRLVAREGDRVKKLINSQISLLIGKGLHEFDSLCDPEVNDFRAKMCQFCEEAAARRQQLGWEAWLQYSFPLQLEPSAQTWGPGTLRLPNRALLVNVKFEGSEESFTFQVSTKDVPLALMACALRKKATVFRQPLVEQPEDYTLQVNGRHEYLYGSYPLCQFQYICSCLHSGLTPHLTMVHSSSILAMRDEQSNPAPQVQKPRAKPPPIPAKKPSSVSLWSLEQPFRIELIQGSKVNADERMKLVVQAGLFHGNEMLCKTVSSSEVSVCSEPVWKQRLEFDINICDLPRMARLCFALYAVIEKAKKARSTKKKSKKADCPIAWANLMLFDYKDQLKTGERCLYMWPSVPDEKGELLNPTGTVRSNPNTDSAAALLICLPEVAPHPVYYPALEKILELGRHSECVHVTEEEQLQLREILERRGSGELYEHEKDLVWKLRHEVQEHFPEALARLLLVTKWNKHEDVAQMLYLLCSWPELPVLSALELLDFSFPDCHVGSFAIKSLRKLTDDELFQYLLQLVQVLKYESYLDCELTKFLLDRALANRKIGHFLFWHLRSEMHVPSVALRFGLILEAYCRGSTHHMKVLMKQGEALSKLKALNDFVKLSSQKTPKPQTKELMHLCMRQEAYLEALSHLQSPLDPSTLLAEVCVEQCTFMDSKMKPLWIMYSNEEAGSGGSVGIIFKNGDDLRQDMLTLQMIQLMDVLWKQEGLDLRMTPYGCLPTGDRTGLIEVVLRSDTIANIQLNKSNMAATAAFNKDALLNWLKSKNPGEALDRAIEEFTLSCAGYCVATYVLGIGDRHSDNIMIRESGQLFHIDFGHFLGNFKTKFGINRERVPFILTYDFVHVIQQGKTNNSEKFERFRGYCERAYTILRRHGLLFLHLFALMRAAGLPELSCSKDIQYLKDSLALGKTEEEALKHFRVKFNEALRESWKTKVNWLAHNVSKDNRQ
PI3K (p110δ/p85α) (h), sequence (P27986 whole entry partner): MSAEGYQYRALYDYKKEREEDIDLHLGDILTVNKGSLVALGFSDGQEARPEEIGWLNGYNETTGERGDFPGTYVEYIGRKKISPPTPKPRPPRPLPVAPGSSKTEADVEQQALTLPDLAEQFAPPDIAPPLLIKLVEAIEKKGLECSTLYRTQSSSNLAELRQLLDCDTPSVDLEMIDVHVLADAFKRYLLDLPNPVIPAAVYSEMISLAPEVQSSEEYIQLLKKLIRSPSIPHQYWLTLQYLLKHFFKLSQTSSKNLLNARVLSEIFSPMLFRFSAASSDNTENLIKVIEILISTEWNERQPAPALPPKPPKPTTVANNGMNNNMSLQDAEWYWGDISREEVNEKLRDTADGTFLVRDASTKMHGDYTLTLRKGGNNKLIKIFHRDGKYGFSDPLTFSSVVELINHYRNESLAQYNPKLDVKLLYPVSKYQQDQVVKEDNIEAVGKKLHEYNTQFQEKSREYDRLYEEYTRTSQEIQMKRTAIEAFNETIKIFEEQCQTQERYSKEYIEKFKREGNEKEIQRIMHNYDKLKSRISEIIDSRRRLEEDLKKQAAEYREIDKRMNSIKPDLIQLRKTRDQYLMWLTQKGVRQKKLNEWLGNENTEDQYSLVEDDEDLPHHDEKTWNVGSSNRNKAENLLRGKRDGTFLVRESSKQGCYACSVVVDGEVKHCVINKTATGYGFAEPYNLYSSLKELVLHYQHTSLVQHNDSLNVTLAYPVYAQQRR

Row | half-life at 5 μM [1] [min] | CLint scaled at 5 μM [1] [mL/min/kg] | half-life at 5 μM [2] [min] | CLint scaled at 5 μM [2] [mL/min/kg] | clearance (CL) [3] [mL/min/kg] | bioavailability [3] [%] | AUC(0-t) [3] [ng·h/mL] | half-life [3] [min] | Vd [3] [L/kg] | pIC50 (PI3K (p110δ/p85α) (h)) | SMILES
1 | 44.3 | 56 | 56.9 | 43.7 | 71.3 | 34.1 | 237 | 56.4 | 5.02 | 7.28 | CC[C@H](Nc1ncnc(N)c1-c1nc(C)no1)c1nc2cccc(F)c2c(=O)n1C1CC1 [Ex. 23, (S)-2-(1-((6-amino-5-(3-methyl-1,2,4-oxadiazol-5-yl)pyrimidin-4-yl)amino)-propyl)-3-cyclopropyl-5-fluoroquinazolin-4(3H)-one]
2 | 150 | 16.6 | 49.9 | 49.8 | 75.7 | 62.3 | 223 | 48.6 | 3.77 | 6.53 | CC[C@H](Nc1ncnc(N)c1-c1nnc(C)o1)c1nc2cccc(F)c2c(=O)n1C1CC1 [Ex. 25, (S)-2-(1-((6-amino-5-(5-methyl-1,3,4-oxadiazol-2-yl)pyrimidin-4-yl)amino)-propyl)-3-cyclopropyl-5-fluoroquinazolin-4(3H)-one]
3 | 74.5 | 33.4 | 66.3 | 37.4 | 37 | 45.8 | 443 | 128 | 2.5 | 5.64 | CC[C@H](Nc1ncnc(N)c1-c1ncn(C)n1)c1nc2cccc(F)c2c(=O)n1C1CC1 [Ex. 26, (S)-2-(1-((6-amino-5-(1-methyl-1H-1,2,4-triazol-3-yl)pyrimidin-4-yl)amino)propyl)-3-cyclopropyl-5-fluoroquinazolin-4(3H)-one]
4 | 14.9 | 167 | 16.3 | 152 | 61.7 | 49.8 | 263 | 111 | 6.11 | 7.89 | CC[C@H](Nc1ncnc(N)c1-c1nc(C)no1)c1nc2cccc(C)c2c(=O)n1-c1ccccc1C [Ex. 27, (S)-2-(1-((6-amino-5-(3-methyl-1,2,4-oxadiazol-5-yl)pyrimidin-4-yl)amino)-propyl)-5-methyl-3-(o-tolyl)quinazolin-4(3H)-one]
5 | 7.56 | 328 | 7.27 | 342 | 64.8 | 16.2 | 260 | 42 | 3.42 | 7.74 | CC[C@H](Nc1ncnc(N)c1-c1nnc(C)o1)c1nc2cccc(C)c2c(=O)n1-c1ccccc1C [Ex. 31, (S)-2-(1-((6-amino-5-(5-methyl-1,3,4-oxadiazol-2-yl)pyrimidin-4-yl)amino)propyl)-5-methyl-3-(o-tolyl)quinazolin-4(3H)-one]
6 | 17.4 | 100 | 20 | 124 | 43.3 | 61 | 390 | 37.8 | 1.51 | 7.15 | CC[C@H](Nc1ncnc(N)c1-c1ncn(C)n1)c1nc2cccc(Cl)c2c(=O)n1-c1ccccc1 [Ex. 32, (S)-2-(1-((6-amino-5-(1-methyl-1H-1,2,4-triazol-3-yl)pyrimidin-4-yl)amino)-propyl)-5-chloro-3-phenylquinazolin-4(3H)-one]
7 | 11.9 | 146 | 8.68 | 286 | 65.5 | 5.59 | 241 | 432 | 14.3 | 7.17 | Cc1nc(-c2c(N)ncnc2N[C@@H](C)c2nc3cccc(Cl)c3c(=O)n2C2CC2)no1 [Ex. 33, (S)-2-(1-((6-amino-5-(5-methyl-1,2,4-oxadiazol-3-yl)pyrimidin-4-yl)amino)-ethyl)-5-chloro-3-cyclopropylquinazolin-4(3H)-one]
8 | 5.3 | 328 | 7.2 | 345 | 67.5 | 24.6 | 246 | 80.4 | 4.9 | 8.22 | CC[C@H](Nc1ncnc(N)c1-c1nc(C)no1)c1nc2cccc(C)c2c(=O)n1-c1ccccc1 [Ex. 37, (S)-2-(1-((6-amino-5-(3-methyl-1,2,4-oxadiazol-5-yl)pyrimidin-4-yl)amino)-propyl)-5-methyl-3-phenylquinazolin-4(3H)-one]
9 | 16 | 109 | 8.57 | 290 | 71.3 | 36.6 | 236 | 39.3 | 3.05 | 7.92 | CC[C@H](Nc1ncnc(N)c1-c1nnc(C)o1)c1nc2cccc(C)c2c(=O)n1-c1ccccc1 [Ex. 38, (S)-2-(1-((6-amino-5-(5-methyl-1,3,4-oxadiazol-2-yl)pyrimidin-4-yl)amino)-propyl)-5-methyl-3-phenylquinazolin-4(3H)-one]
10 | 28 | 62.1 | 12.6 | 198 | 57.3 | 112 | 292 | 40.2 | 2.99 | 7.03 | CC[C@H](Nc1ncnc(N)c1-c1nnc(C)o1)c1nc2cccc(F)c2c(=O)n1-c1ccccc1 [Ex. 40, (S)-2-(1-((6-amino-5-(5-methyl-1,3,4-oxadiazol-2-yl)pyrimidin-4-yl)amino)-propyl)-5-fluoro-3-phenylquinazolin-4(3H)-one]
11 | 13.6 | 128 | 13 | 191 | 73.7 | 14 | 231 | 34.2 | 2.51 | 6.45 | C[C@H](Nc1ncnc(N)c1-c1ncn(C)n1)c1nc2cccc(Cl)c2c(=O)n1C1CC1 [Ex. 44, (S)-2-(1-((6-amino-5-(1-methyl-1H-1,2,4-triazol-3-yl)pyrimidin-4-yl)amino)-ethyl)-5-chloro-3-cyclopropylquinazolin-4(3H)-one]
12 | 22.6 | 76.9 | 18.2 | 136 | 27.3 | 59.8 | 609 | 115 | 1.64 | 6.87 | CC[C@H](Nc1ncnc(N)c1-c1ccn(C)n1)c1nc2cccc(Cl)c2c(=O)n1C1CC1 [Ex. 51, (S)-2-(1-((6-amino-5-(1-methyl-1H-pyrazol-3-yl)pyrimidin-4-yl)amino)propyl)-5-chloro-3-cyclopropylquinazolin-4(3H)-one]
13 | 28 | 62.1 | 34.1 | 72.9 | 38.2 | 97.3 | 429 | 97.2 | 3.88 | 6.62 | CC[C@H](Nc1ncnc(N)c1-c1ncn(C)n1)c1nc2cccc(Cl)c2c(=O)n1C1CC1 [Ex. 53, (S)-2-(1-((6-amino-5-(1-methyl-1H-1,2,4-triazol-3-yl)pyrimidin-4-yl)amino)-propyl)-5-chloro-3-cyclopropylquinazolin-4(3H)-one]
14 | 20 | 87 | 20.4 | 122 | 74.7 | 60.9 | 217 | 104 | 8.12 | 8.05 | CCc1noc(-c2c(N)ncnc2N[C@@H](CC)c2nc3cccc(Cl)c3c(=O)n2C2CC2)n1 [Ex. 56, (S)-2-(1-((6-amino-5-(3-ethyl-1,2,4-oxadiazol-5-yl)pyrimidin-4-yl)amino)-propyl)-5-chloro-3-cyclopropylquinazolin-4(3H)-one]
15 | 18.2 | 95.2 | 10.4 | 239 | 83 | 12.1 | 199 | 59.4 | 5.84 | 8.22 | CC(C)c1noc(-c2c(N)ncnc2N[C@@H](C)c2nc3cccc(Cl)c3c(=O)n2C2CC2)n1 [Ex. 57, (S)-2-(1-((6-amino-5-(3-isopropyl-1,2,4-oxadiazol-5-yl)pyrimidin-4-yl)amino)-ethyl)-5-chloro-3-cyclopropylquinazolin-4(3H)-one]
16 | 6.66 | 261 | 3.36 | 739 | 73.7 | 3.27 | 229 | 115 | 7.32 | 7.70 | CC(C)c1nc(-c2c(N)ncnc2N[C@@H](C)c2nc3cccc(Cl)c3c(=O)n2C2CC2)no1 [Ex. 59, (S)-2-(1-((6-amino-5-(5-isopropyl-1,2,4-oxadiazol-3-yl)pyrimidin-4-yl)amino)ethyl)-5-chloro-3-cyclopropylquinazolin-4(3H)-one]
